The text below walks through data of ChEMBL document CHEMBL5029165, “Derivatives of montanine-type alkaloids and their implication for the treatment of Alzheimer's disease: Synthesis, biological activity and in silico study” (Bioorg Med Chem Lett, 2021).

pIC50: −log10 of the molar value.

In assay [1] the target is T1, Acetylcholinesterase (Homo sapiens, UniProt P22303). Put plainly: Inhibition of human AChE at 100 uM using acetylthiocholine as substrate by Ellman's method. On the technique in general: Ellman's reagent forms a yellow product with free thiols.
Assay [2] has as its target T2, Cholinesterase (Homo sapiens, UniProt P06276). Put plainly: Inhibition of human BuChE at 100 uM using butyrylthiocholine chloride as substrate by Ellman's method.
Assay [3] can be described thus: Selectivity index, ratio of IC50 for human BuChe to IC50 for human AChE.
Assay [4] deals with T1, Acetylcholinesterase. Put plainly: Inhibition of human AChE using acetylthiocholine as substrate by Ellman's method.
The target of assay [5] is T2, Cholinesterase. Put plainly: Inhibition of human BuChE using butyrylthiocholine chloride as substrate by Ellman's method.
The nature of assay [6]: Selectivity index, ratio of IC50 for human AChE to IC50 for human BuChe.

T2 sequence (P06276 whole entry): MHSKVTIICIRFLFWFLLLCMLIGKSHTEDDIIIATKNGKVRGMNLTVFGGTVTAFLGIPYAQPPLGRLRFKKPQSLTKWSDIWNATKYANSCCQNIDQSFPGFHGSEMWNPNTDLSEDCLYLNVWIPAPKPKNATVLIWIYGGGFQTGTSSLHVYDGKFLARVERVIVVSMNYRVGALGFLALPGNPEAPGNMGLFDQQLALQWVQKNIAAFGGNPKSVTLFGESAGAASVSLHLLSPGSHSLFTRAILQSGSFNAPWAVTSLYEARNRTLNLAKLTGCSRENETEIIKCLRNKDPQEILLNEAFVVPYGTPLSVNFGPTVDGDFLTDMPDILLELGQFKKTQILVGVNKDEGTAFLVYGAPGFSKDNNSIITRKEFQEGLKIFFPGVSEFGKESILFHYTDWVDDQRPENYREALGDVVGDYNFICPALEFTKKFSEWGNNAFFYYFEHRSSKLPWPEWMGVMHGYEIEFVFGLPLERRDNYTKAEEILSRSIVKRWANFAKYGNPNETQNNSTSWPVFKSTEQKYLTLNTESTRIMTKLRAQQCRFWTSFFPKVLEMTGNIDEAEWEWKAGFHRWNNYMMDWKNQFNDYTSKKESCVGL
T1 sequence (P22303 whole entry): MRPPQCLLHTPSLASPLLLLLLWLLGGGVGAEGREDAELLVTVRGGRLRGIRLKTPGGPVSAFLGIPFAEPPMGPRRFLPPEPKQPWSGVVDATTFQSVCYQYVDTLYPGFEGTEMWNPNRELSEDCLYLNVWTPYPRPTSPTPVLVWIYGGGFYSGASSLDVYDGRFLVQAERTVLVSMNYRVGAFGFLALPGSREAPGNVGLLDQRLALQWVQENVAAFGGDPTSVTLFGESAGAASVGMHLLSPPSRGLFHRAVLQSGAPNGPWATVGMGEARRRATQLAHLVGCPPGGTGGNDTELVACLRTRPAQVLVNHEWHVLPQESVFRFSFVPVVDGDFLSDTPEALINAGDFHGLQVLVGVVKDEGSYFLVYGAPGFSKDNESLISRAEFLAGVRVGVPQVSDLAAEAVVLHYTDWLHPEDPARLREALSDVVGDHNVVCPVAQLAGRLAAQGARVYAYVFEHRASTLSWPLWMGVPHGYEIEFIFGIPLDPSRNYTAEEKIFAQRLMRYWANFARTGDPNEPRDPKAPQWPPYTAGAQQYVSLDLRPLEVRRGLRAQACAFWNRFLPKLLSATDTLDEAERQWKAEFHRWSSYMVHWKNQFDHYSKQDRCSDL

The term inhibition denotes the relative decrease from the control value, in per cent. Low values mean little suppression, high ones strong suppression. Broadly, the pIC50 is the IC50 on a negative log10 scale, so that one unit is a factor of ten. A low value points to a high IC50. For the compound `CO[C@H]1C[C@H]2C(=C[C@@H]1OC(=O)c1cc([N+](=O)[O-])ccc1Cl)[C@H]1CN2Cc2cc3c(cc21)OCO3`, the inhibition on Acetylcholinesterase [1] came to 78.7%; at Cholinesterase [2], 30%. Further, the values for the Selectivity Index in assay [3] and in assay [6] were above 31.4 and below 0.03, respectively. For the same compound, the pIC50 at Acetylcholinesterase [4] is 5.50; at Cholinesterase [5], below 4.00.
Take `CO[C@H]1C=C2[C@H]3CN(Cc4cc5c(cc43)OCO5)[C@H]2C[C@@H]1OC(=O)c1ccc(Cl)c([N+](=O)[O-])c1`: the inhibition was 4.8% at Acetylcholinesterase [1] and 13.8% against Cholinesterase [2]. For the same compound, the pIC50 against Acetylcholinesterase [4] and on Cholinesterase [5] was below 4.00 throughout.
With `CO[C@H]1C[C@H]2C(=C[C@@H]1OC(=O)c1ccc(C)c([N+](=O)[O-])c1)[C@H]1CN2Cc2cc3c(cc21)OCO3`, the inhibition on Acetylcholinesterase [1] is 81.5%; against Cholinesterase [2], 6.8%. For the same compound, the Selectivity Index in assay [3] was above 23.1; in assay [6] it was below 0.04. Moreover, the pIC50 at Acetylcholinesterase [4] is 5.36; against Cholinesterase [5], below 4.00.
With `CO[C@H]1C=C2[C@H]3CN(Cc4cc5c(cc43)OCO5)[C@H]2C[C@@H]1OC(=O)c1ccc(C)c([N+](=O)[O-])c1`, the values for the inhibition against Acetylcholinesterase [1] and at Cholinesterase [2] were 30.3% and 20.4%, respectively. Moreover, the pIC50 on Acetylcholinesterase [4] and against Cholinesterase [5] was below 4.00 throughout.
As for `CO[C@H]1C[C@H]2C(=C[C@@H]1OC(=O)c1ccc([N+](=O)[O-])cc1Cl)[C@H]1CN2Cc2cc3c(cc21)OCO3`, the values for the inhibition against Acetylcholinesterase [1] and on Cholinesterase [2] were 48.6% and 27.1%, respectively. Also, the pIC50 at Acetylcholinesterase [4] and against Cholinesterase [5] was below 4.00 each time.
As for `CO[C@H]1C=C2[C@H]3CN(Cc4cc5c(cc43)OCO5)[C@H]2C[C@@H]1OC(=O)N1CCCCC1`, the inhibition stood at 10.9% on Acetylcholinesterase [1] and 88.2% against Cholinesterase [2]. In addition, the Selectivity Index in assay [3] is below 0.07; in assay [6], above 15.3. The results for the pIC50 against Acetylcholinesterase [4] and on Cholinesterase [5] were below 4.00 and 5.18, respectively.
Regarding `O=C(O[C@H]1CN2Cc3cc4c(cc3[C@]13C=C[C@@H](O)C[C@H]23)OCO4)c1ccccc1Cl`, the values for the pIC50 against Acetylcholinesterase [4] and against Cholinesterase [5] were 4.89 and 5.25, respectively.
For the compound `O=C(O[C@@H]1C=C[C@]23CCN(Cc4cc5c(cc42)OCO5)[C@H]3C1)c1ccccc1[N+](=O)[O-]`, the pIC50 against Acetylcholinesterase [4] was 4.22; on Cholinesterase [5] it was 5.85.
For the compound `CO[C@H]1C[C@H]2C(=C[C@@H]1OC(=O)N1CCCCC1)[C@H]1CN2Cc2cc3c(cc21)OCO3`, the inhibition was determined as 8.8% at Acetylcholinesterase [1] and 97% at Cholinesterase [2]. Further, the pIC50 was below 4.00 on Acetylcholinesterase [4] and 5.76 against Cholinesterase [5].
`CO[C@H]1C[C@H]2C(=C[C@@H]1OC(=O)c1ccco1)[C@H]1CN2Cc2cc3c(cc21)OCO3`: the inhibition against Acetylcholinesterase [1] is 15.1%; against Cholinesterase [2], 26.9%. In addition, the pIC50 against Acetylcholinesterase [4] and against Cholinesterase [5] was below 4.00 each time.
With `CO[C@H]1C=C2[C@H]3CN(Cc4cc5c(cc43)OCO5)[C@H]2C[C@@H]1O`, the inhibition against Acetylcholinesterase [1] was determined as 13.7%; against Cholinesterase [2], 8.4%.
As to `CO[C@H]1C[C@H]2C(=C[C@@H]1O)[C@H]1CN2Cc2cc3c(cc21)OCO3`, the inhibition on Acetylcholinesterase [1] and at Cholinesterase [2] was 9.2% throughout. For the same compound, the pIC50 against Acetylcholinesterase [4] and at Cholinesterase [5] was below 4.00 in each case.
For `CO[C@H]1C[C@H]2C(=C[C@@H]1OC(=O)c1ccccc1C)[C@H]1CN2Cc2cc3c(cc21)OCO3`, the inhibition against Acetylcholinesterase [1] worked out at 29.7%; on Cholinesterase [2], 30.2%. Besides, the pIC50 at Acetylcholinesterase [4] and against Cholinesterase [5] was below 4.00 in each case.
`CO[C@H]1C[C@H]2C(=C[C@@H]1OC(=O)c1cc([N+](=O)[O-])cc([N+](=O)[O-])c1)[C@H]1CN2Cc2cc3c(cc21)OCO3`: the inhibition against Acetylcholinesterase [1] worked out at 70.8%; against Cholinesterase [2], 19.2%. For the same compound, the Selectivity Index in assay [3] was above 7.66; in assay [6], below 0.13. Moreover, the results for the pIC50 against Acetylcholinesterase [4] and against Cholinesterase [5] were 4.88 and below 4.00, respectively.
`COc1ccc(C(=O)O[C@H]2C=C3[C@H]4CN(Cc5cc6c(cc54)OCO6)[C@H]3C[C@@H]2OC)cc1OC`: the inhibition on Acetylcholinesterase [1] was found to be 17.2%; at Cholinesterase [2] it was 18.1%. For the same compound, the pIC50 against Acetylcholinesterase [4] and against Cholinesterase [5] was below 4.00 each time.
With `CO[C@H]1C[C@H]2C(=C[C@@H]1OC(=O)c1cccc([N+](=O)[O-])c1)[C@H]1CN2Cc2cc3c(cc21)OCO3`, the inhibition is 55.3% against Acetylcholinesterase [1] and 18.1% against Cholinesterase [2]. In addition, the pIC50 against Acetylcholinesterase [4] and against Cholinesterase [5] was below 4.00 throughout.
Regarding `CO[C@H]1C[C@H]2C(=C[C@@H]1OC(=O)c1ccccc1[N+](=O)[O-])[C@H]1CN2Cc2cc3c(cc21)OCO3`, the inhibition came to 34.1% against Acetylcholinesterase [1] and 45.4% on Cholinesterase [2]. Further, the pIC50 on Acetylcholinesterase [4] and against Cholinesterase [5] was below 4.00 in each case.
On to `CO[C@H]1C[C@H]2C(=C[C@@H]1OC(=O)c1ccc(Cl)c([N+](=O)[O-])c1)[C@H]1CN2Cc2cc3c(cc21)OCO3`, for which the inhibition was determined as 83.7% at Acetylcholinesterase [1] and 26.5% against Cholinesterase [2]. The Selectivity Index was above 62.1 in assay [3] and below 0.02 in assay [6]. For the same compound, the figures for the pIC50 against Acetylcholinesterase [4] and on Cholinesterase [5] were 5.79 and below 4.00, respectively.
For `CO[C@H]1C=C2[C@H]3CN(Cc4cc5c(cc43)OCO5)[C@H]2C[C@@H]1OC(=O)c1ccc([N+](=O)[O-])cc1Cl`, the inhibition was found to be 2.3% at Acetylcholinesterase [1] and 69.8% against Cholinesterase [2]. The Selectivity Index is below 0.17 in assay [3] and above 5.9 in assay [6]. Besides, the pIC50 on Acetylcholinesterase [4] was below 4.00; against Cholinesterase [5] it was 4.77.
`CO[C@H]1C[C@H]2C(=C[C@@H]1OC(=O)c1ccc([N+](=O)[O-])cc1)[C@H]1CN2Cc2cc3c(cc21)OCO3`: the inhibition against Acetylcholinesterase [1] worked out at 48.1%; on Cholinesterase [2] it was 26.2%. Further, the pIC50 on Acetylcholinesterase [4] and against Cholinesterase [5] was below 4.00 throughout.
As to `COc1cccc(C(=O)O[C@H]2C=C3[C@H]4CN(Cc5cc6c(cc54)OCO6)[C@H]3C[C@@H]2OC)c1`, the inhibition on Acetylcholinesterase [1] is 19.3%; at Cholinesterase [2] it was 20.3%. In addition, the pIC50 on Acetylcholinesterase [4] and against Cholinesterase [5] was below 4.00 throughout.
As to `COc1ccccc1C(=O)O[C@H]1C=C2[C@H]3CN(Cc4cc5c(cc43)OCO5)[C@H]2C[C@@H]1OC`, the inhibition at Acetylcholinesterase [1] stood at 15.6%; against Cholinesterase [2], 30.1%. Further, the pIC50 against Acetylcholinesterase [4] and at Cholinesterase [5] was below 4.00 each time.
Regarding `Cc1ccccc1C(=O)O[C@@H]1C=C[C@]23CCN(Cc4cc5c(cc42)OCO5)[C@H]3C1`, the pIC50 on Acetylcholinesterase [4] is below 4.00; against Cholinesterase [5] it was 5.10.
For the compound `CO[C@H]1C=C2[C@H]3CN(Cc4cc5c(cc43)OCO5)[C@H]2C[C@@H]1OC(=O)c1cc([N+](=O)[O-])ccc1Cl`, the inhibition at Acetylcholinesterase [1] came to 1.8%; against Cholinesterase [2], 40.1%. Also, the pIC50 on Acetylcholinesterase [4] and at Cholinesterase [5] was below 4.00 each time.
Consider `COc1c2c(cc3c1OCO3)[C@]13C=C[C@H](OC)C[C@H]1N(C2)C[C@H]3OC(=O)c1cccc2ccccc12`, for which the pIC50 was below 4.00 against Acetylcholinesterase [4] and 7.00 against Cholinesterase [5].
With `O=C(O[C@H]1CN2Cc3cc4c(cc3[C@]13C=C[C@@H](O)C[C@H]23)OCO4)c1cccc([N+](=O)[O-])c1`, the pIC50 was 5.40 on Acetylcholinesterase [4] and below 4.00 at Cholinesterase [5].
For `CO[C@H]1C[C@H]2C(=C[C@@H]1OC(=O)c1cccc(C)c1)[C@H]1CN2Cc2cc3c(cc21)OCO3`, the inhibition on Acetylcholinesterase [1] was found to be 18.2%; at Cholinesterase [2], 12.9%. Moreover, the pIC50 against Acetylcholinesterase [4] and at Cholinesterase [5] was below 4.00 throughout.
On to `COc1ccccc1C(=O)O[C@H]1CN2Cc3cc4c(cc3[C@]13C=C[C@@H](O)C[C@H]23)OCO4`, for which the pIC50 against Acetylcholinesterase [4] is 4.05; at Cholinesterase [5], 5.48.
On to `COc1ccc(C(=O)O[C@H]2C=C3[C@H]4CN(Cc5cc6c(cc54)OCO6)[C@H]3C[C@@H]2OC)cc1`, for which the inhibition worked out at 12.5% at Acetylcholinesterase [1] and 15.5% on Cholinesterase [2]. Moreover, the pIC50 against Acetylcholinesterase [4] and against Cholinesterase [5] was below 4.00 in each case.
With `CO[C@H]1C=C2[C@H]3C[N@@](Cc4cc5c(cc43)OCO5)[C@H]2C[C@@H]1O` [MONTANINE], the pIC50 at Acetylcholinesterase [4] and on Cholinesterase [5] was below 4.00 throughout.
With `CO[C@H]1C[C@H]2C(=C[C@@H]1OC(=O)c1ccoc1)[C@H]1CN2Cc2cc3c(cc21)OCO3`, the figures for the inhibition against Acetylcholinesterase [1] and at Cholinesterase [2] were 6.8% and 30.2%, respectively. In addition, the pIC50 against Acetylcholinesterase [4] and against Cholinesterase [5] was below 4.00 in each case.
Take `CO[C@H]1C[C@H]2C(=C[C@@H]1OCCN1CCCCC1)[C@H]1CN2Cc2cc3c(cc21)OCO3`: the inhibition was 6.5% against Acetylcholinesterase [1] and 45.2% against Cholinesterase [2]. Further, the pIC50 at Acetylcholinesterase [4] and at Cholinesterase [5] was below 4.00 in each case.
For `CO[C@H]1C[C@H]2C(=C[C@@H]1OC(=O)c1cccs1)[C@H]1CN2Cc2cc3c(cc21)OCO3`, the results for the inhibition against Acetylcholinesterase [1] and against Cholinesterase [2] were 29.4% and 49.7%, respectively. Moreover, the pIC50 against Acetylcholinesterase [4] and at Cholinesterase [5] was below 4.00 each time.
Consider `CO[C@H]1C[C@H]2C(=C[C@@H]1OC(=O)c1ccccc1)[C@H]1CN2Cc2cc3c(cc21)OCO3`, for which the inhibition against Acetylcholinesterase [1] turned out to be 8.5%; against Cholinesterase [2], 20.1%. Further, the pIC50 at Acetylcholinesterase [4] and against Cholinesterase [5] was below 4.00 throughout.
Consider `CO[C@H]1C[C@H]2C(=C[C@@H]1OC(=O)c1ccc(C)cc1)[C@H]1CN2Cc2cc3c(cc21)OCO3`, for which the inhibition was 12.4% at Acetylcholinesterase [1] and 12.9% against Cholinesterase [2]. In addition, the pIC50 on Acetylcholinesterase [4] and on Cholinesterase [5] was below 4.00 each time.
As to `CO[C@H]1C[C@H]2C(=C[C@@H]1OC(=O)c1cc(Br)cc([N+](=O)[O-])c1)[C@H]1CN2Cc2cc3c(cc21)OCO3`, the inhibition at Acetylcholinesterase [1] was 28%; against Cholinesterase [2], 31.7%. For the same compound, the pIC50 on Acetylcholinesterase [4] and against Cholinesterase [5] was below 4.00 each time.
